Bounds are passed on as bounds.

For one data set, the system named is KB cells. As to conditions: human.
Data set [1] can be described thus: Enzymatic stability in rat intestinal homogenate pH 6.5 at 37 °C. The settings on record: Sprague-Dawley, pH 6.5, Half-lives, rat intestinal homogenate pH 6.5, 37 °C.
A further data set in a line: in vitro. The settings on record: human.
For data set [2] the following is noted: in vivo murine model; relative to 2 or its cyclic form 4; cited from earlier work.
The conditions of data set [3]: parent (S)-HPMPA; cited from earlier work.
Data set [4] has as its system Vaccinia virus strain Copenhagen. The data set can be described thus: microbe, parasite or virus in culture. In kind it is cell-based. The settings on record: Orthopoxvirus vaccinia, read-out: Antiviral Activity IC50 Vaccinia.
In another data set the test system is Towne strain of HCMV. As to the kind of experiment: microbe, parasite or virus in culture. In kind it is cell-based, human cytomegalovirus. As to conditions: Human betaherpesvirus 5, read-out: Antiviral Activity IC50 HCMV.
The subject of another data set is hPEPT1. As to conditions: hPEPT1 expressed in the model system; cited from earlier work.
Where [5] appears, read: t1/2 Intestinal Homogenate pH 6.5, Rp isomer.
Where [6] appears, read: t1/2 Intestinal Homogenate pH 6.5, Sp isomer.

With `CC(C)OC(=O)[C@@H](N)Cc1ccc(OP2(=O)CO[C@@H](Cn3ccc(N)nc3=O)CO2)cc1` (mixture of isomers) [8´, Isopropyl O-[(5S)-5-[(4-amino-2-oxopyrimidin-1(2H)-yl)methyl]-2-oxido-1,4,2-dioxaphosphinan-2-yl]-(L)-tyrosinate], the IC50 (in general, the concentration that inhibits the measured activity by half) in the data set with KB cells is above 100 µM.
Same read-out and setting: to `CC(C)CNC(=O)[C@@H](N)Cc1ccc(OP2(=O)CO[C@@H](Cn3cnc4c(N)ncnc43)CO2)cc1` (mixture of isomers) [11´, O-[(5S)-5-[(6-Amino-9H-purin-9-yl)methyl]-2-oxido-1,4,2-dioxaphosphinan-2-yl]-N-(2-methylpropyl)-(L)-tyrosinamide] belongs above 100 µM.
With `CC(C)OC(=O)[C@@H](N)Cc1ccc(OP2(=O)CO[C@@H](Cn3ccc(N)nc3=O)CO2)cc1` (mixture of isomers) [Compound 8, Isopropyl O-[(5S)-5-[(4-amino-2-oxopyrimidin-1(2H)-yl)methyl]-2-oxido-1,4,2-dioxaphosphinan-2-yl]-(L)-tyrosinate], the half-life at 0.5 mg/ml in [1] (setting [5]) and in data set [1] (setting [6]) was below 0.5 h each time. The same molecule yielded an IC50 in “in vitro” above 100 µM.
On to `CC(C)CNC(=O)[C@@H](N)Cc1ccc(OP2(=O)CO[C@@H](Cn3cnc4c(N)ncnc43)CO2)cc1` (mixture of isomers) [Compound 11, O-[(5S)-5-[(6-Amino-9H-purin-9-yl)methyl]-2-oxido-1,4,2-dioxaphosphinan-2-yl]-N-(2-methylpropyl)-(L)-tyrosinamide], for which the half-life – broadly, the time in which the quantity being followed falls by half – in “Stability in rat plasma” (Rp diastereomer) turned out to be 3.55 h; in the data set “Stability in rat plasma” (Sp diastereomer), 0.383 h. Besides, the results for the half-life at 0.5 mg/ml in [1] (setting [5]) and in data set [1] (setting [6]) were 12.8 h and 1.9 h, respectively. Further, the IC50 in “in vitro” is above 100 µM.
For `COC(=O)C(COP1(=O)COC(Cn2ccc(N)nc2=O)CO1)NC(=O)C(N)C(C)C` (stereo not drawn) [(L)-Val-(L)-Ser-OMe cHPMPC], the “increase in oral bioavailability of total 2 species” value in [2] is on record as “eight-fold”.
In turn, `Nc1ncnc2c1ncn2C[C@@H](CO)OCP(=O)(O)O` [Compound 1, (S)-9-[3-hydroxy-2-(phosphonomethoxy)propyl]adenine, reference compound] gave an IC50 in the data set “in vitro” above 100 µM. Also, the “oral bioavailability of the parent compound” value in data set [3] is listed as below 5%.
For `Nc1ccn(C[C@@H](CO)OCP(=O)(O)O)c(=O)n1` [Compound 2, 1-(S)-[3-hydroxy-2-(phosphonomethoxy)propyl]cytosine, reference compound], the results for the IC50 (in [4]; in the data set “in vitro”) were 20 µM and above 100 µM, respectively.
`Nc1ncnc2c1ncn2C[C@H]1COP(=O)(O)CO1` [Compound 3, (5S)-5-[(6-Amino-9H-purin-9-yl)methyl]-1,4,2-dioxaphosphinan-2-ol 2-oxide, reference compound] returned an IC50 in “in vitro” above 100 µM.
In the case of `Nc1ccn(C[C@H]2COP(=O)(O)CO2)c(=O)n1` [Compound 4], the IC50 with Towne strain of HCMV was 0.25 µM; in data set [4], 40 µM; in the data set “in vitro”, above 100 µM.
Regarding `COC(=O)[C@@H](N)Cc1ccc(OP2(=O)CO[C@@H](Cn3ccc(N)nc3=O)CO2)cc1` (stereo partly drawn) [Compound 6, Methyl O-[(5S)-5-[(4-amino-2-oxopyrimidin-1(2H)-yl)methyl]-2-oxido-1,4,2-dioxaphosphinan-2-yl]-(L)-tyrosinate], the half-life at 0.5 mg/ml in data set [1] (setting [5]) and in data set [1] (setting [6]) was below 0.5 h each time. This molecule also gave a half-inhibitory concentration (IC50) in the data set “in vitro” above 100 µM.
For the molecule `COC(=O)[C@H](N)Cc1ccc(OP2(=O)CO[C@@H](Cn3ccc(N)nc3=O)CO2)cc1` (stereo partly drawn) [Compound 7, Methyl O-[(5S)-5-[(4-amino-2-oxopyrimidin-1(2H)-yl)methyl]-2-oxido-1,4,2-dioxaphosphinan-2-yl]-(D)-tyrosinate], the half-life at 0.5 mg/ml in data set [1] (setting [5]) amounted to 3.5 h; in data set [1] (setting [6]), 1.2 h. The molecule also gave an IC50 in “in vitro” above 100 µM.
On to `CC(C)(C)NC(=O)[C@H](N)Cc1ccc(OP2(=O)CO[C@@H](Cn3ccc(N)nc3=O)CO2)cc1` (stereo partly drawn) [Compound 9, O-[(5S)-5-[(4-Amino-2-oxopyrimidin-1(2H)-yl)methyl]-2-oxido-1,4,2-dioxaphosphinan-2-yl]-N-tert-butyl-(D)-tyrosinamide], for which the half-life at 0.5 mg/ml was 28.9 h in data set [1] (setting [5]) and 3.85 h in [1] (setting [6]). Besides, the IC50 in the data set “in vitro” was above 100 µM.
The corresponding values for `COC(=O)[C@@H](N)Cc1ccc(OP2(=O)CO[C@@H](Cn3cnc4c(N)ncnc43)CO2)cc1` (stereo partly drawn) [Compound 10, Methyl O-[(5S)-5-[(6-amino-9H-purin-9-yl)methyl]-2-oxido-1,4,2-dioxaphosphinan-2-yl]-(L)-tyrosinate] are below 0.5 h, below 0.5 h and above 100 µM.
The corresponding values for `COC(=O)[C@H](Cc1ccc(OP2(=O)CO[C@@H](Cn3cnc4c(N)ncnc43)CO2)cc1)NC(=O)[C@@H](N)C(C)C` (stereo partly drawn) [Compound 13, Methyl (L)-valyl-O-[(5S)-5-[(6-amino-9H-purin-9-yl)methyl]-2-oxido-1,4,2-dioxaphosphinan-2-yl]-(L)-tyrosinate] are below 0.5 h, below 0.5 h and above 100 µM.
As to `CC(C)CNC(=O)[C@@H](N)Cc1ccc(OP(=O)(O)CO[C@H](CO)Cn2cnc3c(N)ncnc32)cc1` [Compound 28, O-[([[(2S)-1-(6-Amino-9H-purin-9-yl)-3-hydroxypropan-2-yl]oxy]methyl)(hydroxy)phosphoryl]-N-(2-methylpropyl)-(L)-tyrosinamide], the IC50 in the data set “in vitro” was above 100 µM.
Consider `COC(=O)[C@H](COP1(=O)CO[C@@H](Cn2ccc(N)nc2=O)CO1)NC(=O)[C@@H](N)C(C)C` (stereo partly drawn) [Val-Ser-OMe cHPMPC], for which the “binding and transport by hPEPT1” value with hPEPT1 is reported as “tightly bound but not transported”.

The values above are taken from paper PMC3166236 (Journal of medicinal chemistry, 2011).
